Data reported in patent US10407429B2, “Pyrazolo[1,5-a]triazin-4-amine derivatives useful in therapy” (Curovir AB, priority 2015, dated 2019).
Where two headings read alike, the source gives them in different places.

Experiments:
[1] = test system: Enterovirus 6; assay: Antiviral CPE assay in mammalian cell culture; format: cell-based; conditions: prevention of viral CPE, read-out: inhibition capacity (IC50) EV6
[2] = test system: Enterovirus 71; assay: Antiviral CPE assay in mammalian cell culture; format: cell-based; conditions: Enterovirus A, EV71, prevention of viral CPE, read-out: inhibition capacity (IC50) EV71
[3] = test system: polio virus Sabin 1; assay: organism not typed; format: cell-based; conditions: read-out: inhibition capacity (IC50) Polio 1
[4] = test system: coxsackie B5virus; assay: Antiviral CPE assay in mammalian cell culture; format: cell-based; conditions: read-out: inhibition capacity (IC50) B5
[5] = test system: coxsackie B 4 virus; assay: Antiviral CPE assay in mammalian cell culture; format: cell-based; conditions: Enterovirus B
[6] = test system: Enterovirus 30; assay: Antiviral CPE assay in mammalian cell culture; format: cell-based; conditions: read-out: inhibition capacity (IC50) EV30
[7] = test system: Enterovirus 68; assay: Antiviral CPE assay in mammalian cell culture; format: cell-based; conditions: Enterovirus D
[8] = test system: coxsackie B2 virus; assay: Antiviral CPE assay in mammalian cell culture; format: cell-based; conditions: read-out: inhibition capacity (IC50) B2
[9] = test system: coxsackie B1 virus; assay: Antiviral CPE assay in mammalian cell culture; format: cell-based; conditions: read-out: inhibition capacity (IC50) Bl
[10] = target: PI3Kβ (Homo sapiens, UniProt P42338); assay: Phosphatidyl inositol kinase inhibition assay (HTRF); format: biochemical
Excerpt: (§1) Phosphatidyl Inositol Kinase Inhibition Assay
(§2) Inhibition of PI3 kinases was studied using the HTRF (homogeneous time-resolved fluorescence) assay which is a universal method for identifying and characterizing the phosphotransferase activity induced by any ATP/ADP dependent target. The formation of ADP is detected by a specific monoclonal antibody labeled with Eu^3+ cryptate, and directly correlates with the amount of phosphorylated substrate in kinase assays

[11] = target: PI3Kα (Homo sapiens, UniProt P42336); assay: as above; format: biochemical
Excerpt: as §1, §2

[12] = target: PI4KIIIβ (Homo sapiens, UniProt Q9UBF8); assay: Phosphatidyl inositol kinase inhibition assay (ADP-Glo Kinase Assay); format: biochemical
Protocol: (§3) Phosphatidyl Inositol Kinase Inhibition Assay Inhibition of PI4 kinases was studied using the ADP-Glo™ Kinase Assay which is a luminescent kinase assay that measures ADP formed from a kinase reaction; ADP is converted into ATP, which is converted into light by Ultra-Glo™ Luciferase. The assay is performed in two steps; first, after the kinase reaction, an equal volume of ADP-Glo™ Reagent is added to terminate the kinase reaction and deplete the remaining ATP. In the second step, the Kinase Detection Reagent is added, which simultaneously converts ADP to ATP and allows the newly synthesized ATP to be measured using a coupled luciferase/luciferin reaction. The luminescent signal produced is proportional to the activity of the kinase.

[13] = target: PI4KIIIα (Homo sapiens, UniProt P42356); assay: as above; format: biochemical
Protocol: as §3

[14] = test system: coxsackie B3 virus; assay: Antiviral CPE assay in mammalian cell culture; format: cell-based; conditions: Enterovirus B
[15] = B4, read-out: inhibition capacity (IC50) B4
[16] = EV68, read-out: inhibition capacity (IC50) EV68
[17] = B3, read-out: inhibition capacity (IC50) B3

Chain of PI4KIIIα (P42356 whole entry): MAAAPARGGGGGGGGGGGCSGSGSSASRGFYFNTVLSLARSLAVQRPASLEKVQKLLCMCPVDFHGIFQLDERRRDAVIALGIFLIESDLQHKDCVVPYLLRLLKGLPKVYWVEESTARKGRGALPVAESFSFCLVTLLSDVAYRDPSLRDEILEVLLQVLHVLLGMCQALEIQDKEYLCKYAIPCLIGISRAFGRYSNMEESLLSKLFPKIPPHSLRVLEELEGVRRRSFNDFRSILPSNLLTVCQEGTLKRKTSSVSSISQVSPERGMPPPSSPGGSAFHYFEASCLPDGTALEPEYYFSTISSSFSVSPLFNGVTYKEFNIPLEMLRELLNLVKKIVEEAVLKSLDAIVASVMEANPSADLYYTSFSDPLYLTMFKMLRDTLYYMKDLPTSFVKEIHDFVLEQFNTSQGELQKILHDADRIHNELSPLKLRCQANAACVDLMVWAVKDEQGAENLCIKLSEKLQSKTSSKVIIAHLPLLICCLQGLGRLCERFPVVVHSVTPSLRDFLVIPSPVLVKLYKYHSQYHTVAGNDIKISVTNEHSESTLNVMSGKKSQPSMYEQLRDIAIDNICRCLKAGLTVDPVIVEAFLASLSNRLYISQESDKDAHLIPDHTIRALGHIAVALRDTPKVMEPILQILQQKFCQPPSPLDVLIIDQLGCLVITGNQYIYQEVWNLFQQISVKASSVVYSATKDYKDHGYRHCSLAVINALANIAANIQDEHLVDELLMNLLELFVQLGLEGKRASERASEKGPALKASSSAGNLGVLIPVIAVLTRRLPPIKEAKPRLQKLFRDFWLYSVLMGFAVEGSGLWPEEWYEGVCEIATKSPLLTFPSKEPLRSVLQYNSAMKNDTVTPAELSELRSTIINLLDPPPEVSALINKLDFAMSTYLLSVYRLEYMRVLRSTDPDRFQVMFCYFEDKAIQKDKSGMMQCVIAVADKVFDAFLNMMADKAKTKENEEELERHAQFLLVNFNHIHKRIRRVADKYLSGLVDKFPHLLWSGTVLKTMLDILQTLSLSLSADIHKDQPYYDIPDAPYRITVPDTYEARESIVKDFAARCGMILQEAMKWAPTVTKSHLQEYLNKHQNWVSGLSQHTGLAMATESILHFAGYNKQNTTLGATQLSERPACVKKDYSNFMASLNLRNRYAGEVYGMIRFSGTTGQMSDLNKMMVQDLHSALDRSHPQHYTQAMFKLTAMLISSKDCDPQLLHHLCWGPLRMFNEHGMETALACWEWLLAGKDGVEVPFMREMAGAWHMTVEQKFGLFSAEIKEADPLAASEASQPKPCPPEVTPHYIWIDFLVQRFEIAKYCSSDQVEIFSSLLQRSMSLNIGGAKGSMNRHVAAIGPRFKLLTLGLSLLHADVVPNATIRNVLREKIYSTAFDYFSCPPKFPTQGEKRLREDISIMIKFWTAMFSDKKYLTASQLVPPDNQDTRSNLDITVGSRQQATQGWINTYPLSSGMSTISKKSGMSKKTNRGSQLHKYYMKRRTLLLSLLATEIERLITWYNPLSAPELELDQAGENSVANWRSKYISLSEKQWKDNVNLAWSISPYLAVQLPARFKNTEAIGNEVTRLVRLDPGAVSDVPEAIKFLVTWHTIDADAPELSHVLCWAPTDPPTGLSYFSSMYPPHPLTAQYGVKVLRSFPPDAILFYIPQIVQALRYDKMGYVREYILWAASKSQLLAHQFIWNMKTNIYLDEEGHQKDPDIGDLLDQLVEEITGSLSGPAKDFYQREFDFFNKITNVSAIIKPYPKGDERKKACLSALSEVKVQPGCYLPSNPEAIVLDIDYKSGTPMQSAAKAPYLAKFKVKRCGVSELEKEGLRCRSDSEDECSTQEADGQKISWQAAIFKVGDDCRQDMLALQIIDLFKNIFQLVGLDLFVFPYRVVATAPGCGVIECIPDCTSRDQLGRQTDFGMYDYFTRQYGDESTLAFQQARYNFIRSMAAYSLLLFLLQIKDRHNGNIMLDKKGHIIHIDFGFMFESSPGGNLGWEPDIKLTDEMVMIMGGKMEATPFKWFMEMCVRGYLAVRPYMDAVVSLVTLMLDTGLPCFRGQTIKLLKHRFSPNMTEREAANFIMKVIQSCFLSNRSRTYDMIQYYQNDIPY
Chain of PI4KIIIβ (Q9UBF8 whole entry): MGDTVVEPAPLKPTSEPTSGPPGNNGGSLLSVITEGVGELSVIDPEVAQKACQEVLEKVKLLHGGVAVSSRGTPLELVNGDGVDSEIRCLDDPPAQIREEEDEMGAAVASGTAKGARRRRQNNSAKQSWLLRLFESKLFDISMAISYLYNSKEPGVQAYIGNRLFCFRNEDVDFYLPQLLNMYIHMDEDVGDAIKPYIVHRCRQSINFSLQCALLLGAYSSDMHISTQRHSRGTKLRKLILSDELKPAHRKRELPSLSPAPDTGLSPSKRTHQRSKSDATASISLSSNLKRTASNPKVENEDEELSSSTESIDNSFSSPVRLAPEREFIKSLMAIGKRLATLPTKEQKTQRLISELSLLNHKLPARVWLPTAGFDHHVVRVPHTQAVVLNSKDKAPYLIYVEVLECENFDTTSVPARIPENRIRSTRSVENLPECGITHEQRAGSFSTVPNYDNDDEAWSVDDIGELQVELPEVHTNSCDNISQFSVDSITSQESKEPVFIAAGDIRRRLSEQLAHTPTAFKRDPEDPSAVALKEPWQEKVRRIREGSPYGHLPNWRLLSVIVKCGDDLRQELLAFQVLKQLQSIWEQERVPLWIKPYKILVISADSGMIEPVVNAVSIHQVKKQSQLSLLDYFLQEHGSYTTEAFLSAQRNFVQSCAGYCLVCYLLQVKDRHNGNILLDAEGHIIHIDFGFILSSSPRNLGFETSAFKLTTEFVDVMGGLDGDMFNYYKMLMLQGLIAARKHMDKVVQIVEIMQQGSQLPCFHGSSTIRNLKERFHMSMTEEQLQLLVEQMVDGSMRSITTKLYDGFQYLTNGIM
Chain of PI3Kβ (P42338 whole entry, species assumed): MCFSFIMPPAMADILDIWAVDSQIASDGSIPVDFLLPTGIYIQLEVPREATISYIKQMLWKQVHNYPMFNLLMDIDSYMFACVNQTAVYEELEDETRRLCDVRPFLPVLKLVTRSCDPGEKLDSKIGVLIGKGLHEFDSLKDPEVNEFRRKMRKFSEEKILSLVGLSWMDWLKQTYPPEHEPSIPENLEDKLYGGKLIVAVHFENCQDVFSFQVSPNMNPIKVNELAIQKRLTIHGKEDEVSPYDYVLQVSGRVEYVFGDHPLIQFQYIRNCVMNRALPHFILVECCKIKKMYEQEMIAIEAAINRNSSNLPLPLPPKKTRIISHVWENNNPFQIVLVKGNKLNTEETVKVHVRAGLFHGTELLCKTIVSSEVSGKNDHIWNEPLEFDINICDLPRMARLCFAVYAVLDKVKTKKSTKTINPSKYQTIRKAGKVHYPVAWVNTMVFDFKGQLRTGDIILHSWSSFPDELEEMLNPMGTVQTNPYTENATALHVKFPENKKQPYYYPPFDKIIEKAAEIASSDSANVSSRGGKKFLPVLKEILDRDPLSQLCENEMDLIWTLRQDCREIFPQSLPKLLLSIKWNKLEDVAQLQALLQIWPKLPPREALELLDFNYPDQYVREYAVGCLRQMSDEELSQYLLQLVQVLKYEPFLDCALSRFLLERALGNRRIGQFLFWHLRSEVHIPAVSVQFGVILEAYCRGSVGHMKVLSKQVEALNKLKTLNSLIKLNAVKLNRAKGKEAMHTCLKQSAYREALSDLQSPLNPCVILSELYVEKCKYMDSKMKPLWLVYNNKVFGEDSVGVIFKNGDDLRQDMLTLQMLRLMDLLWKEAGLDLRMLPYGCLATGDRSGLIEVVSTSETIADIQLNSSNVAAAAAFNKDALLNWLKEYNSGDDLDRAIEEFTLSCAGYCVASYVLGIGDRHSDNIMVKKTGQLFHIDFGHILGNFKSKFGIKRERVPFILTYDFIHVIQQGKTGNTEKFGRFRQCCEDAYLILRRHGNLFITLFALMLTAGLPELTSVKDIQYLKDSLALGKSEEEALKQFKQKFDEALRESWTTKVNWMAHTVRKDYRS
Chain of PI3Kβ (P27986 whole entry partner, species assumed): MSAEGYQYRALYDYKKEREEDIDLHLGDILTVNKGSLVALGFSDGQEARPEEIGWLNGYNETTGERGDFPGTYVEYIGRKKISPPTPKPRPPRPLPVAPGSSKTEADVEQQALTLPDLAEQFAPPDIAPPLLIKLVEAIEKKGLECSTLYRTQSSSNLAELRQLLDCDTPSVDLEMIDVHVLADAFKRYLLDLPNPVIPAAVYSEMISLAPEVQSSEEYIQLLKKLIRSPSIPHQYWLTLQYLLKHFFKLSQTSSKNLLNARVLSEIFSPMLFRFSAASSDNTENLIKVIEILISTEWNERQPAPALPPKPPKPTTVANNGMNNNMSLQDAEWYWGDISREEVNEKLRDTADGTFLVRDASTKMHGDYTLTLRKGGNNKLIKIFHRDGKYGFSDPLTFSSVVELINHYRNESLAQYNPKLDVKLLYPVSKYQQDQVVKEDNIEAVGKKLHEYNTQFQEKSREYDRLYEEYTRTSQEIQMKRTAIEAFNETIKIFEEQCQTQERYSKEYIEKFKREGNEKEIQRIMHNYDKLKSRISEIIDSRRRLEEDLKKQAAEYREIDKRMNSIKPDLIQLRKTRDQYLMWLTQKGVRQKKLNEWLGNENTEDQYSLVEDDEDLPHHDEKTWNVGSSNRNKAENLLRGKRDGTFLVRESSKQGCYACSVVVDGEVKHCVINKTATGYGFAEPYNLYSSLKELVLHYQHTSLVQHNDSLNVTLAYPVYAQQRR

Structure (SMILES)	IC50 [1] [µM]	IC50 [2] [µM]	IC50 [3] [µM]	IC50 [4] [µM]	IC50 [5, 15] [µM]	IC50 ([6]; Enterovirus) [µM]	IC50 [7, 16] [µM]	IC50 [8] [µM]	IC50 [9] [µM]	IC50 [14, 17] [µM]	other results
COc1ccc(-c2c(C)nn3c(NCc4ccncc4)nc(C)nc23)cc1OC [Example 6, 8-(3,4-dimethoxyphenyl)-2,7-dimethyl-N-(4-pyridylmethyl)pyrazolo[1,5-a][1,3,5]triazin-4-amine]	< 0.01	< 0.01	< 0.01	< 0.01	< 0.01	< 0.1	< 0.01	< 0.01	< 0.01	< 0.01	IC50 [10]: > 10 µM; IC50 [11]: 7.3 µM; IC50 [12]: 0.0013 µM; IC50 [13]: 3.2 µM
COc1ccc(-c2c(C)nn3c(NCc4ccc(S(N)(=O)=O)cc4)nc(C)nc23)cc1OC [Example 14, 4-[[[8-(3,4-dimethoxyphenyl)-2,7-dimethyl-pyrazolo[1,5-a][1,3,5]triazin-4-yl]amino]methyl]benzenesulfonamide]		< 0.01	< 0.01	< 0.01	< 0.1	< 0.01	< 0.01	< 0.1	< 0.1	< 0.1	IC50 [10]: > 10 µM; IC50 [11]: > 10 µM; IC50 [12]: 0.0021 µM; IC50 [13]: 1.3 µM
COc1ccc(-c2c(C)nn3c(NCc4cccnc4)nc(C)nc23)cc1OC [Example 22, 8-(3,4-dimethoxyphenyl)-2,7-dimethyl-N-(3-pyridylmethyl)pyrazolo[1,5-a][1,3,5]triazin-4-amine]	< 0.1	< 0.1	< 0.1	< 0.1	< 0.1	< 0.1	< 0.1	< 0.1	< 0.1	< 0.1	
COc1ccc(-c2c(C)nn3c(NCc4ccc(C)o4)nc(C)nc23)cc1OC [Example 23, 8-(3,4-dimethoxyphenyl)-2,7-dimethyl-N-[(5-methyl-2-furyl)methyl]pyrazolo[1,5-a][1,3,5]triazin-4-amine]	< 0.1	< 0.1	< 0.01	< 0.1	< 0.01	< 0.1	< 0.1	< 0.1	< 0.01	< 0.1	
COC(=O)NS(=O)(=O)c1ccc(CNc2nc(C)nc3c(-c4ccc(OC)c(OC)c4)c(C)nn23)cc1 [Example 24, methyl N-[4-[[[8-(3,4-dimethoxyphenyl)-2,7-dimethyl-pyrazolo[1,5-a][1,3,5]triazin-4-yl]amino]methyl]phenyl]sulfonylcarbamate]	> 1	< 1	< 1	> 1	< 1	> 1	< 1	< 1	> 1	> 1	
CCC(=O)NS(=O)(=O)c1ccc(CNc2nc(C)nc3c(-c4ccc(OC)c(OC)c4)c(C)nn23)cc1 [Example 25, N-[4-[[[8-(3,4-dimethoxyphenyl)-2,7-dimethyl-pyrazolo[1,5-a][1,3,5]triazin-4-yl]amino]methyl]phenyl]sulfonylpropanamide]	> 1	> 1	> 1	> 1	> 1	> 1	< 1	> 1	> 1	> 1	
CNS(=O)(=O)c1ccc(CNc2nc(C)nc3c(-c4ccc(OC)c(OC)c4)c(C)nn23)cc1 [Example 26, N-methyl-4-[[[8-(3,4-dimethoxyphenyl)-2,7-dimethyl-pyrazolo[1,5-a][1,3,5]triazin-4-yl]amino]methyl]benzenesulfonamide]	< 1	< 1	< 0.1	< 1	< 0.1	< 1	> 1	< 0.1	< 1	< 1	
COc1ccc(-c2c(C)nn3c(NCc4ccn(C)n4)nc(C)nc23)cc1OC [Example 27, 8-(3,4-dimethoxyphenyl)-2,7-dimethyl-N-[(1-methyl-1H-pyrazol-3-yl)methyl]pyrazolo[1,5-a][1,3,5]triazin-4-amine]	< 1	< 0.1	< 0.01	< 0.1	< 0.01	< 0.1	< 0.01	< 0.01	< 0.01	< 0.1	
COc1ccc(-c2c(C)nn3c(NCc4cnco4)nc(C)nc23)cc1OC [Example 28, 8-(3,4-dimethoxyphenyl)-2,7-dimethyl-N-[(1,3-oxazol-5-yl)methyl]pyrazolo[1,5-a][1,3,5]triazin-4-amine]	< 0.1	< 0.1	< 0.1	< 1	< 0.1	> 1	< 0.01	< 0.1	< 0.1	< 0.1	
COc1ccc(-c2c(C)nn3c(NCC4CCNCC4)nc(C)nc23)cc1OC [Example 29, 8-(3,4-dimethoxyphenyl)-2,7-dimethyl-N-[(piperidin-4-yl)methyl]pyrazolo[1,5-a][1,3,5]triazin-4-amine]	> 1	> 1	> 1	> 1	> 1	> 1	> 1	> 1	> 1	> 1	
COc1ccc(-c2c(C)nn3c(NCc4cnc(C)nc4)nc(C)nc23)cc1OC [Example 30, 8-(3,4-dimethoxyphenyl)-2,7-dimethyl-N-[(2-methylpyrimidin-5-yl)methyl]pyrazolo[1,5-a][1,3,5]triazin-4-amine]	< 1	< 0.1	< 0.1	< 1	< 0.1	< 0.1	< 0.1	< 1	< 1	< 1	
COc1ccc(-c2c(C)nn3c(NCc4ccnnc4)nc(C)nc23)cc1OC [Example 31, 8-(3,4-dimethoxyphenyl)-2,7-dimethyl-N-[(pyridazin-4-yl)methyl]pyrazolo[1,5-a][1,3,5]triazin-4-amine]	< 1	< 0.1	< 1	< 1	< 0.01	> 1	< 0.1	< 1	< 1	< 1	
COc1ccc(-c2c(C)nn3c(NCc4ccc(C)nc4)nc(C)nc23)cc1OC [Example 32, 8-(3,4-dimethoxyphenyl)-2,7-dimethyl-N-[(6-methylpyridin-3-yl)methyl]pyrazolo[1,5-a][1,3,5]triazin-4-amine]	< 0.1	< 0.1	< 0.1								IC50 ([4]; prevention of viral CPE, mammalian cell culture, coxsackie B5 virus): < 0.1 µM; IC50 ([5]; prevention of viral CPE, mammalian cell culture, coxsackie B4 virus, read-out: inhibition capacity (IC50) B4): < 0.1 µM; IC50 ([6]; prevention of viral CPE, mammalian cell culture, Enterovirus 30): < 0.01 µM; IC50 ([7]; EV68, prevention of viral CPE, mammalian cell culture, Enterovirus 68, read-out: inhibition capacity (IC50) EV68): < 0.1 µM; IC50 ([8]; prevention of viral CPE, mammalian cell culture, coxsackie B2 virus): < 0.1 µM; IC50 ([9]; prevention of viral CPE, mammalian cell culture, coxsackie B1 virus): < 0.1 µM; IC50 ([14]; prevention of viral CPE, mammalian cell culture, coxsackie B3 virus, read-out: inhibition capacity (IC50) B3): < 0.01 µM
